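Dose response: 5 concentrations. Exposure: 48 h. Format: 96-well plates. Endpoint: linear interpolation; highest concentration if not reached. The concentration for 50% growth inhibition is given as GI50. TGI is the concentration that stops growth completely.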
Experiments:
Assay in all cases: NCI tumour cell line growth inhibition, 48 h
SNB-75 CNS = tested on: SNB-75 CNS
NCI-H522 lung = tested on: NCI-H522 lung
DU-145 prostate = tested on: DU-145 prostate
RXF 393 renal = tested on: RXF 393 renal
SK-MEL-5 melanoma = tested on: SK-MEL-5 melanoma
HOP-62 NSCLC = tested on: HOP-62 NSCLC
HT29 colon = tested on: HT29 colon
A498 renal = tested on: A498 renal
MCF7 breast = tested on: MCF7 breast
MDA-MB-435 = tested on: MDA-MB-435
UACC-62 melanoma = tested on: UACC-62 melanoma
IGROV1 ovarian = tested on: IGROV1 ovarian
NCI/ADR-RES ovarian = tested on: NCI/ADR-RES ovarian
SF-295 CNS = tested on: SF-295 CNS
KM12 colon = tested on: KM12 colon
EKVX NSCLC = tested on: EKVX NSCLC
OVCAR-8 ovarian = tested on: OVCAR-8 ovarian
HOP-92 NSCLC = tested on: HOP-92 NSCLC
ACHN renal = tested on: ACHN renal
K-562 leukemia = tested on: K-562 leukemia
HCT-116 colon = tested on: HCT-116 colon
NCI-H23 lung = tested on: NCI-H23 lung
OVCAR-3 ovarian = tested on: OVCAR-3 ovarian
M14 melanoma = tested on: M14 melanoma
NCI-H226 lung = tested on: NCI-H226 lung
SN12C renal = tested on: SN12C renal
PC-3 prostate = tested on: PC-3 prostate
HL-60(TB) leukemia = tested on: HL-60(TB) leukemia
OVCAR-5 ovarian = tested on: OVCAR-5 ovarian
UACC-257 melanoma = tested on: UACC-257 melanoma
A549 NSCLC = tested on: A549 NSCLC
MOLT-4 leukemia = tested on: MOLT-4 leukemia
786-0 renal = tested on: 786-0 renal
OVCAR-4 ovarian = tested on: OVCAR-4 ovarian
SR leukemia = tested on: SR leukemia
SF-539 CNS = tested on: SF-539 CNS
LOX IMVI melanoma = tested on: LOX IMVI melanoma
HCT-15 colon = tested on: HCT-15 colon
T-47D breast = tested on: T-47D breast
MDA-MB-231 breast = tested on: MDA-MB-231 breast
SK-MEL-2 melanoma = tested on: SK-MEL-2 melanoma
U251 CNS = tested on: U251 CNS
SNB-19 CNS = tested on: SNB-19 CNS
SW-620 colon = tested on: SW-620 colon
SF-268 CNS = tested on: SF-268 CNS
BT-549 breast = tested on: BT-549 breast
CAKI-1 renal = tested on: CAKI-1 renal
COLO 205 colon = tested on: COLO 205 colon
MALME-3M melanoma = tested on: MALME-3M melanoma
NCI-H460 lung = tested on: NCI-H460 lung
HS 578T breast = tested on: HS 578T breast
CCRF-CEM leukemia = tested on: CCRF-CEM leukemia
SK-OV-3 ovarian = tested on: SK-OV-3 ovarian
TK-10 renal = tested on: TK-10 renal
SK-MEL-28 melanoma = tested on: SK-MEL-28 melanoma
RPMI-8226 leukemia = tested on: RPMI-8226 leukemia

Work on `O=C(O)C1CC[N-]CC1.O=C(O)C1CC[N-]CC1.[NH2-].[NH2-].[Pt+4]` yielded a GI50 (SNB-75 CNS) greater than 100 µM, a TGI (SNB-75 CNS) greater than 100 µM and a GI50 (NCI-H522 lung) greater than 100 µM. The TGI (NCI-H522 lung) was greater than 100 µM, the GI50 (DU-145 prostate) was greater than 100 µM and the TGI (DU-145 prostate) was greater than 100 µM. It also gave a GI50 (RXF 393 renal) greater than 100 µM, a TGI (RXF 393 renal) greater than 100 µM and a GI50 (SK-MEL-5 melanoma) greater than 100 µM. For the same compound, the TGI (SK-MEL-5 melanoma) was greater than 100 µM, the GI50 (HOP-62 NSCLC) was greater than 100 µM and the TGI (HOP-62 NSCLC) was greater than 100 µM. The GI50 (HT29 colon) was greater than 100 µM, the TGI (HT29 colon) was greater than 100 µM and the GI50 (A498 renal) was greater than 100 µM. It also gave a TGI (A498 renal) greater than 100 µM, a GI50 (MCF7 breast) greater than 100 µM and a TGI (MCF7 breast) greater than 100 µM. The GI50 (MDA-MB-435) was greater than 100 µM, the TGI (MDA-MB-435) was greater than 100 µM and the GI50 (UACC-62 melanoma) was greater than 100 µM. It also gave a TGI (UACC-62 melanoma) greater than 100 µM, a GI50 (IGROV1 ovarian) greater than 100 µM and a TGI (IGROV1 ovarian) greater than 100 µM. For the same compound, the GI50 (NCI/ADR-RES ovarian) was greater than 100 µM, the TGI (NCI/ADR-RES ovarian) was greater than 100 µM and the GI50 (SF-295 CNS) was greater than 100 µM. It also gave a TGI (SF-295 CNS) greater than 100 µM, a GI50 (KM12 colon) greater than 100 µM and a TGI (KM12 colon) greater than 100 µM. The GI50 (EKVX NSCLC) was greater than 100 µM, the TGI (EKVX NSCLC) was greater than 100 µM and the GI50 (OVCAR-8 ovarian) was greater than 100 µM. The TGI (OVCAR-8 ovarian) was greater than 100 µM, the GI50 (HOP-92 NSCLC) was greater than 100 µM and the TGI (HOP-92 NSCLC) was greater than 100 µM. For the same compound, the GI50 (ACHN renal) was greater than 100 µM, the TGI (ACHN renal) was greater than 100 µM and the GI50 (K-562 leukemia) was greater than 100 µM. It also gave a TGI (K-562 leukemia) greater than 100 µM, a GI50 (HCT-116 colon) greater than 100 µM and a TGI (HCT-116 colon) greater than 100 µM. The GI50 (NCI-H23 lung) was greater than 100 µM, the TGI (NCI-H23 lung) was greater than 100 µM and the GI50 (OVCAR-3 ovarian) was greater than 100 µM. The TGI (OVCAR-3 ovarian) was greater than 100 µM, the GI50 (M14 melanoma) was greater than 100 µM and the TGI (M14 melanoma) was greater than 100 µM. For the same compound, the GI50 (NCI-H226 lung) was greater than 100 µM, the TGI (NCI-H226 lung) was greater than 100 µM and the GI50 (SN12C renal) was greater than 100 µM. The TGI (SN12C renal) was greater than 100 µM, the GI50 (PC-3 prostate) was greater than 100 µM and the TGI (PC-3 prostate) was greater than 100 µM. For the same compound, the GI50 (HL-60(TB) leukemia) was greater than 100 µM, the TGI (HL-60(TB) leukemia) was greater than 100 µM and the GI50 (OVCAR-5 ovarian) was greater than 100 µM. It also gave a TGI (OVCAR-5 ovarian) greater than 100 µM, a GI50 (UACC-257 melanoma) greater than 100 µM and a TGI (UACC-257 melanoma) greater than 100 µM. It also gave a GI50 (A549 NSCLC) greater than 100 µM, a TGI (A549 NSCLC) greater than 100 µM and a GI50 (MOLT-4 leukemia) greater than 100 µM. It also gave a TGI (MOLT-4 leukemia) greater than 100 µM, a GI50 (786-0 renal) greater than 100 µM and a TGI (786-0 renal) greater than 100 µM. It also gave a GI50 (OVCAR-4 ovarian) greater than 100 µM, a TGI (OVCAR-4 ovarian) greater than 100 µM and a GI50 (SR leukemia) greater than 100 µM. For the same compound, the TGI (SR leukemia) was greater than 100 µM, the GI50 (SF-539 CNS) was greater than 100 µM and the TGI (SF-539 CNS) was greater than 100 µM. It also gave a GI50 (LOX IMVI melanoma) greater than 100 µM, a TGI (LOX IMVI melanoma) greater than 100 µM and a GI50 (HCT-15 colon) greater than 100 µM. It also gave a TGI (HCT-15 colon) greater than 100 µM, a GI50 (T-47D breast) greater than 100 µM and a TGI (T-47D breast) greater than 100 µM. It also gave a GI50 (MDA-MB-231 breast) greater than 100 µM, a TGI (MDA-MB-231 breast) greater than 100 µM and a GI50 (SK-MEL-2 melanoma) greater than 100 µM. For the same compound, the TGI (SK-MEL-2 melanoma) was greater than 100 µM, the GI50 (U251 CNS) was greater than 100 µM and the TGI (U251 CNS) was greater than 100 µM. It also gave a GI50 (SNB-19 CNS) greater than 100 µM, a TGI (SNB-19 CNS) greater than 100 µM and a GI50 (SW-620 colon) greater than 100 µM. The TGI (SW-620 colon) was greater than 100 µM, the GI50 (SF-268 CNS) was greater than 100 µM and the TGI (SF-268 CNS) was greater than 100 µM. The GI50 (BT-549 breast) was greater than 100 µM, the TGI (BT-549 breast) was greater than 100 µM and the GI50 (CAKI-1 renal) was greater than 100 µM. The TGI (CAKI-1 renal) was greater than 100 µM, the GI50 (COLO 205 colon) was greater than 100 µM and the TGI (COLO 205 colon) was greater than 100 µM. The GI50 (MALME-3M melanoma) was greater than 100 µM, the TGI (MALME-3M melanoma) was greater than 100 µM and the GI50 (NCI-H460 lung) was greater than 100 µM. The TGI (NCI-H460 lung) was greater than 100 µM, the GI50 (HS 578T breast) was greater than 100 µM and the TGI (HS 578T breast) was greater than 100 µM. It also gave a GI50 (CCRF-CEM leukemia) greater than 100 µM, a TGI (CCRF-CEM leukemia) greater than 100 µM and a GI50 (SK-OV-3 ovarian) greater than 100 µM. For the same compound, the TGI (SK-OV-3 ovarian) was greater than 100 µM, the GI50 (TK-10 renal) was greater than 100 µM and the TGI (TK-10 renal) was greater than 100 µM. For the same compound, the GI50 (SK-MEL-28 melanoma) was greater than 100 µM, the TGI (SK-MEL-28 melanoma) was greater than 100 µM and the GI50 (RPMI-8226 leukemia) was greater than 100 µM. The TGI (RPMI-8226 leukemia) was greater than 100 µM.
